Results published in patent US20230220047A1, “PEPTIDES FOR TREATMENT OF SEPSIS AND CANCER” (NORWEGIAN UNIVERSITY OF SCIENCE AND TECHNOLOGY (NTNU), priority 2020, published 2023).
“Also recorded” adds a separate entry of the source.

Experiments:
[1] = tested on: IH-1 multiple myeloma cells; assay: CellTiter-Glo cell viability assay, IH-1; format: cell-based, human; conditions: IH-1, 10 μM, 48 h
Procedure: Minor effects on the proliferation of the IH-1 and RPMI 8226 cell lines are seen. Cells were seeded at the level shown (left-hand bar of each set) then incubated in medium containing water, 10 μM penetratin or 10 μM P7-A4-Pen for 48 hr (except for INA-6 cells, which were incubated with 12.5 μM penetratin or 12.5 μM P7-A4-Pen). The number of viable cells was detected based on quantitation of ATP by luminescent signal in correlation to a standard curve prepared for each cell line. Results are based on 3-5 biological replicates for each condition, error bars show standard deviation of mean.
Multiple myeloma cells JJN-3 (DSMZ (Germany) no. ACC 541), ANBL-6 (Cellosaurus accession number CVCL_5425, obtained from Dr Diane Jelinek, Mayo Clinic, Rochester, Minn.), INA-6 (Cellosaurus accession number CVCL_5209, obtained from Dr M. Gramatzki, University of Erlangen-Nurnberg, Erlangen, Germany), RPMI-8226 (ATCC CCL-155), and IH-1 (Cellosaurus accession number CVCL_WZ44, established from the pleural effusion of a myeloma patient by Myeloma research group, IKOM, NTNU, Trondheim, Norway) were grown in RPMI-1640 (Sigma-Aldrich Norway, Oslo, Norway) supplemented with 100 nM penicillin/streptomycin and 10% FCS, and for ANBL-6, IH-1 and INA-6 cells 2 ng/ml recombinant IL-6 (Gibco, Thermo Fisher Scientific, Waltham, Mass., USA). […]

TLR4 = assay: qPCR of LPS-mediated cytokine mRNA expression in THP-1 macrophages; format: cell-based, human; conditions: for IFNβ and CXCL10 mRNA expression: 30 min pre-treatment, LPS
Procedure: SW480 (ATCC CCL-228) and Jurkat (ATCC Clone E6-1; TIB-152) cells were cultured in RPMI 1640 (Sigma-Aldrich, Schnelldorf, Germany) supplemented with 10% heat-inactivated FCS, penicillin/streptomycin (Life Technologies) and 20 mM L-Glutamine. THP-1 cells (ATCC TIB-202) were cultured in RPMI-1640 (high-glucose, ATCC) supplemented with 10% heat inactivated foetal calf serum (FCS), 100 nM penicillin/streptomycin and 5 μM β-mercaptoethanol (Sigma). THP-1 cells were differentiated with 60 ng/ml phorbol 12-myristate 13-acetate (PMA, Sigma) for 72 h, followed by 24 or 48 h in medium without PMA.
Total RNA was isolated from the cells using Qiazol reagent #79306 from QIAGEN, and chloroform extraction followed by purification on RNeasy Mini columns with DNAse digestion (Qiagen). cDNA was prepared using the Maxima First Strand cDNA Synthesis Kit for quantitative real-time polymerase chain reaction (RT-qPCR) (Thermo Fisher Scientific) according to the manufacturer's protocol. qPCR was performed using the PerfeCTa qPCR FastMix (Quanta Biosciences) in replicates and cycled in a StepOnePlus™ Real-Time PCR cycler. The following TaqMan® Gene Expression Assays (Applied Biosystems®) were used: IFNβ (Hs01077958_s1), TNF (Hs00174128_m1), TBP (Hs00427620_m1), CXCL10 (Hs01124251_g1), IL-6 (Hs00174131_m1) and IL-1β (Hs01555410_m1), for human cells; Ifnβ (Mm00439552_s1), Tnf (Mm00443258_m1), Tbp (Mm01277042_m1) and II-1β (Mm00434228_m1), for mouse cells. No RT controls were negative. The level of TBP mRNA was used for normalisation and results presented as relative expression compared to the control untreated sample. Relative expression was calculated using Pfaffl's mathematical model (Pfaffl, Nucleic Acids Research 29(9): e45, 2001). Results are presented as the mean and SD expression fold change for biological replicates relative to non-stimulated cells. Statistical significance was evaluated in GraphPad Prizm 5.03. Data distribution was assumed to be normal but this was not formally tested. The difference between the two groups was determined by two-tailed t test.

murine TLR7 = assay: TLR7-mediated cytokine expression in murine macrophages (R848); format: cell-based, mouse; conditions: R848 (data not shown)
Excerpt: Thus, P7-Pen interferes with signaling initiated by human TLR7 and TLR8, but has no effect on signaling via murine TLR7 (murine TLR8 is believed to be non-functional).

| Substance | cell proliferation [1] | IFNβ and CXCL10 mRNA expression (TLR4; 10 μM) | TLR7-mediated cytokine expression (murine TLR7) | LPS-mediated IFNβ, CXCL10 and TNF expression (TLR4; 10 μM, 1 h pre-treatment, LPS 100 ng/ml) | expression of IFNβ, CXCL10 and TNF mRNA (TLR4; 20 μM, 1 h pre-treatment, LPS 100 ng/ml) | LPS-induced cytokine expression levels (IFNβ, TNF and CXCL10 mRNA) (TLR4; peptide removed from media after pre-treatment, before LPS stimulation (data not shown)) |
| --- | --- | --- | --- | --- | --- | --- |
| Ac-ITVAASVTLTGRQIKIWFQNRRMKWKK-NH2 [Peptide P7-A4-Pen] | Minor effects; also recorded: inhibited cell proliferation | – | – | – | – | – |
| Ac-ITVYASVTLTGRQIKIWFQNRRMKWKK-NH2 [Peptide P7-Pen] | – | reduced | no effect | – | – | – |
| Ac-ITVYASVTLTGRRRRRRRRRRR-NH2 [Peptide P7-Arg11] | – | reduced | – | clear inhibitory effect | totally inhibited | No changes |
